Assay results: the supplement of paper PMC11781733
Structures can show the parent of a compound that is named as a salt.

Columns and labels:
Conditions in all cases: exposure time: 15 min to 3 h acute
[1] = tested on: Dugesia japonica; experiment: crawl-out incidence (% planarians); higher = higher incidence or increase relative to vehicle control
[2] = tested on: Dugesia japonica; experiment: speed in dark vs vehicle (% change vs vehicle); higher = higher incidence or increase relative to vehicle control
Outline: (§1)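 For each worm, crawling speed under dark or blue-light conditions was tracked automatically and expressed against the median of that plate's vehicle worms, and the reported value is the median percent change. The worms were intact, fasted Dugesia japonica held one per well in 200 μL in a 48-well plate, exposed in 0.5% DMSO or water vehicle and tested from 15 min to 3 h afterwards. Eight were used per concentration per plate across technical triplicate (n = 24), excluding any that crawled out.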

[3] = tested on: Dugesia japonica; experiment: C-shape incidence (% planarians (vehicle-normalised)); higher = higher incidence or increase relative to vehicle control
Outline: (§2)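 Single D. japonica planarians, fasted 5–7 days, sat in 200 μL per well of sealed 48-well plates and were screened 15 minutes–3 hours after exposure to at least 5 concentrations. Shapes were scored by hand and blind. The reported value is the incidence of a particular shape, or of any abnormal shape, ×100, set against in-plate vehicle controls with negatives taken as 0.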

[4] = tested on: Dugesia japonica; experiment: corkscrew incidence (% planarians (vehicle-normalised)); higher = higher incidence or increase relative to vehicle control
Outline: as §2

[5] = tested on: Dugesia japonica; experiment: stickiness incidence (% planarians (vehicle-normalised)); higher = higher incidence or increase relative to vehicle control
Outline: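 Stickiness was scored as a yes-or-no outcome in fasted Dugesia japonica planarians, and incidence was normalised to the vehicle incidence on the same plate. Each worm sat alone in a well of a sealed 48-well plate holding 200 μL of solution and was tested 15 min–3 h after exposure to half- or quarter-log concentration series, with 0.5% DMSO or water as vehicle. Technical triplicates were pooled (n = 24), negative values were set to 0, values were multiplied by 100, and worms that crawled out were excluded.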

[6] = tested on: Dugesia japonica; experiment: hyperkinesis incidence (% planarians (vehicle-normalised)); higher = higher incidence or increase relative to vehicle control
Outline: as §2

[7] = tested on: Dugesia japonica; experiment: speed first 30 s blue light vs vehicle (% change vs vehicle); higher = higher incidence or increase relative to vehicle control
Outline: as §1

[8] = tested on: Dugesia japonica; experiment: speed second 30 s blue light vs vehicle (% change vs vehicle); higher = higher incidence or increase relative to vehicle control
Outline: as §1

[9] = tested on: Dugesia japonica; experiment: pharynx extrusion incidence (% planarians (vehicle-normalised)); higher = higher incidence or increase relative to vehicle control
Outline: (§3)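 Pharynx extrusion was scored manually and blind as a body-shape category in intact, fasted Dugesia japonica, one per well of a 48-well plate in 200 μL. Worms were tested 15 min to 3 h after exposure in 0.5% DMSO or water vehicle. Eight worms per concentration per plate were run in technical triplicate (n = 24). The incidence rate ×100 was normalised to in-plate vehicle controls, negatives were set to 0, and worms that crawled out were excluded.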

[10] = tested on: Dugesia japonica; experiment: loss of phototaxis incidence (% planarians (vehicle-normalised)); higher = higher incidence or increase relative to vehicle control
Outline: as §3, with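 “Loss of phototaxis” for “Pharynx extrusion”, “scored” for “scored manually and blind”, “yes/no endpoint” for “body-shape category”, “vehicle, using automated object tracking.” for “vehicle.”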

[11] = tested on: Dugesia japonica; experiment: total locomotor bursts minus vehicle (bursts difference vs vehicle); higher = higher incidence or increase relative to vehicle control
Outline: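 Planarians of the species Dugesia japonica, fasted beforehand, received half- or quarter-log concentration series in 0.5% DMSO or water, one animal per well of a sealed 48-well plate holding 200 μL solution. They were tested 15 min–3 h after exposure in technical triplicates totalling n = 24. Each animal's count of total locomotor bursts, an unstimulated behaviour obtained by image-based object tracking, had the plate vehicle-control median subtracted without ×100 scaling. The figure given is the median normalised response, with crawled-out worms excluded.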

[12] = tested on: Dugesia japonica; experiment: noxious heat displacement strength vs vehicle (% change vs vehicle); higher = higher incidence or increase relative to vehicle control
Outline: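 Values are the median percent change in displacement strength under noxious heat, scored by automated object tracking in the scrunching assay with intact, fasted Dugesia japonica. Each worm was placed alone in a well of a 48-well plate in 200 μL and tested 15 min to 3 h after exposure in 0.5% DMSO or water vehicle. Eight worms per concentration per plate were run in technical triplicate (n = 24), with each worm normalised to the plate's vehicle median and worms that crawled out excluded.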

[13] = tested on: Dugesia japonica; experiment: contracted body shape incidence (% planarians (vehicle-normalised)); higher = higher incidence or increase relative to vehicle control
Outline: as §2

[14] = tested on: Dugesia japonica; experiment: anxiety (time in outer well region) vs vehicle (% change vs vehicle); higher = higher incidence or increase relative to vehicle control
Outline: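 The value is the median normalized time that planarians spent in the outer portion of the well. D. japonica worms, fasted 5–7 days, were held singly in 200 μL per well of sealed 48-well plates at at least 5 concentrations (n = 24 per concentration) and screened within 15 minutes–3 hours. Each worm's response was divided by, or reduced by, the plate vehicle median and then multiplied by 100, and worms that crawled out were left out.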

[15] = tested on: Dugesia japonica; experiment: any abnormal body shape incidence (% planarians (vehicle-normalised)); higher = higher incidence or increase relative to vehicle control
Outline: as §2

[16] = tested on: Dugesia japonica; experiment: resting fraction in dark vs vehicle (difference in fraction x100 vs vehicle); higher = higher incidence or increase relative to vehicle control
Outline: (§4)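 The resting fraction, in the dark or under blue light, comes from automated tracking of intact, fasted Dugesia japonica. Worms sat singly in wells of a 48-well plate in 200 μL and were tested 15 min to 3 h after exposure in 0.5% DMSO or water vehicle. The plate's vehicle median was subtracted from each worm and the difference multiplied by 100, then the median was reported after excluding worms that crawled out.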

[17] = tested on: Dugesia japonica; experiment: loss of heat-induced scrunching incidence (% planarians (vehicle-normalised)); higher = higher incidence or increase relative to vehicle control
Outline: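 Planarians of the species D. japonica, fasted for 5–7 days, were placed singly in wells of sealed 48-well plates in 200 μL and exposed to at least 5 concentrations, 24 worms per concentration in technical triplicates. Scrunching in response to a noxious heat stimulus was tested within 15 minutes–3 hours, and any worm that crawled out was excluded. The reported figure is the incidence of non-scrunching worms, normalised to vehicle controls on the same plate. This incidence is given ×100, with negatives set to 0.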

[18] = tested on: Dugesia japonica; experiment: resting fraction in blue light vs vehicle (difference in fraction x100 vs vehicle); higher = higher incidence or increase relative to vehicle control
Outline: as §4

CCCCNc1c(C(=O)OCC)c(C)nc2c1cnn2CC [tracazolate hydrochloride] (3.16 µM)
crawl-out incidence [1]: 0 | speed in dark [2]: -4.2 | C-shape incidence [3]: 0 | corkscrew incidence [4]: 0 | stickiness incidence [5]: ≤ 0 | hyperkinesis incidence [6]: 12.5 | speed first 30 s blue light [7]: -7.17 | speed second 30 s blue light [8]: -5.52 | pharynx extrusion incidence [9]: 0 | loss of phototaxis incidence [10]: 8.33 | total locomotor bursts minus vehicle [11]: 0.5 | noxious heat displacement strength [12]: -6.19 | contracted body shape incidence [13]: 0 | anxiety [14]: -16.4 | any abnormal body shape incidence [15]: 8.33 | resting fraction in dark [16]: 0 | loss of heat-induced scrunching incidence [17]: ≤ 0 | resting fraction in blue light [18]: 0.22

CCCCNc1c(C(=O)OCC)c(C)nc2c1cnn2CC [tracazolate hydrochloride] (10 µM)
crawl-out incidence [1]: 0 | speed in dark [2]: -27.1 | C-shape incidence [3]: 0 | corkscrew incidence [4]: 0 | stickiness incidence [5]: ≤ 0 | hyperkinesis incidence [6]: 0 | speed first 30 s blue light [7]: -24.7 | speed second 30 s blue light [8]: -17.8 | pharynx extrusion incidence [9]: 0 | loss of phototaxis incidence [10]: ≤ 0 | total locomotor bursts minus vehicle [11]: 4.5 | noxious heat displacement strength [12]: -3.78 | contracted body shape incidence [13]: 0 | anxiety [14]: -12.6 | any abnormal body shape incidence [15]: 0 | resting fraction in dark [16]: 1.52 | loss of heat-induced scrunching incidence [17]: 16.7 | resting fraction in blue light [18]: 0

CCCCNc1c(C(=O)OCC)c(C)nc2c1cnn2CC [tracazolate hydrochloride] (31.6 µM)
crawl-out incidence [1]: 0 | speed in dark [2]: -78.9 | C-shape incidence [3]: 79.2 | corkscrew incidence [4]: 8.33 | stickiness incidence [5]: ≤ 0 | hyperkinesis incidence [6]: 12.5 | speed first 30 s blue light [7]: -90.9 | speed second 30 s blue light [8]: -87.7 | pharynx extrusion incidence [9]: 0 | loss of phototaxis incidence [10]: 33.3 | total locomotor bursts minus vehicle [11]: 55.8 | noxious heat displacement strength [12]: -31.1 | contracted body shape incidence [13]: 4.17 | anxiety [14]: -51.8 | any abnormal body shape incidence [15]: 83.3 | resting fraction in dark [16]: 39.1 | loss of heat-induced scrunching incidence [17]: 41.7 | resting fraction in blue light [18]: 51

CCCCNc1c(C(=O)OCC)c(C)nc2c1cnn2CC [tracazolate hydrochloride] (100 µM)
crawl-out incidence [1]: 0 | speed in dark [2]: -83.4 | C-shape incidence [3]: 87.5 | corkscrew incidence [4]: 12.5 | stickiness incidence [5]: ≤ 0 | hyperkinesis incidence [6]: 70.8 | speed first 30 s blue light [7]: -91.5 | speed second 30 s blue light [8]: -91.7 | pharynx extrusion incidence [9]: 8.33 | loss of phototaxis incidence [10]: 12.5 | total locomotor bursts minus vehicle [11]: 81.5 | noxious heat displacement strength [12]: -63.6 | contracted body shape incidence [13]: 4.17 | anxiety [14]: -79.8 | any abnormal body shape incidence [15]: 91.7 | resting fraction in dark [16]: 61.7 | loss of heat-induced scrunching incidence [17]: 29.2 | resting fraction in blue light [18]: 59
